# Columns and labels:
# Rattus norvegicus [1] = assay: Acquisition time in Scopolamine induced avoidance test (performed in rat) for antagonistic activity after peroral administration of 5 mg/kg; assay type: functional; conditions: route oral
# Mus musculus [2] = assay: Retention time in (R)-PIA) induced avoidance test (performed in mice) for antagonistic activity after peroral administration of 0.02 mg/kg; assay type: functional, organism-based; parameters: dose 0.02 mg/kg
# Rattus norvegicus [3] = assay: Acquisition time in Scopolamine induced avoidance test (performed in rat) for antagonistic activity after p.o. administration of 0.31 mg/kg; assay type: functional; conditions: route oral
# Mus musculus [4] = assay: Retention time in (R)-PIA) induced avoidance test (performed in mice) for antagonistic activity after peroral administration of 5 mg/kg; assay type: functional, organism-based; parameters: dose 5 mg/kg
# Mus musculus [5] = assay: Acquisition time in (R)-PIA) induced avoidance test (performed in mice) for antagonistic activity after peroral administration of 5 mg/kg; assay type: functional; conditions: route oral
# Rattus norvegicus [6] = assay: Acquisition time in Scopolamine induced avoidance test (performed in rat) for antagonistic activity after peroral administration of 1.25 mg/kg; assay type: functional; conditions: route oral
# Mus musculus [7] = assay: Retention time in (R)-PIA) induced avoidance test (performed in mice) for antagonistic activity after peroral administration of 0.31 mg/kg; assay type: functional, organism-based; parameters: dose 0.31 mg/kg
# Rattus norvegicus [8] = assay: Retention time in Scopolamine induced avoidance test (performed in rat) for antagonistic activity after p.o. administration of 0.08 mg/kg; assay type: functional, organism-based; parameters: dose 0.08 mg/kg
# Rattus norvegicus [9] = assay: Retention time in Scopolamine induced avoidance test (performed in rat) for antagonistic activity after p.o. administration of 0.31 mg/kg; assay type: functional, organism-based; parameters: dose 0.31 mg/kg
# Mus musculus [10] = assay: Retention time in (R)-PIA) induced avoidance test (performed in mice) for antagonistic activity after peroral administration of 1.25 mg/kg; assay type: functional, organism-based; parameters: dose 1.25 mg/kg
# Rattus norvegicus [11] = assay: Retention time in Scopolamine induced avoidance test (performed in rat) for antagonistic activity after peroral administration of 0.02 mg/kg; assay type: functional, organism-based; parameters: dose 0.02 mg/kg
# Mus musculus [12] = assay: Retention time in (R)-PIA) induced avoidance test (performed in mice) for antagonistic activity after peroral administration of 0.08 mg/kg; assay type: functional, organism-based; parameters: dose 0.08 mg/kg
# Rattus norvegicus [13] = assay: Acquisition time in Scopolamine induced avoidance test (performed in rat) for antagonistic activity after peroral administration of 0.02 mg/kg; assay type: functional; conditions: route oral
# Mus musculus [14] = assay: Acquisition time in (R)-PIA) induced avoidance test (performed in mice) for antagonistic activity after peroral administration of 0.08 mg/kg; assay type: functional; conditions: route oral
# Mus musculus [15] = assay: Acquisition time in (R)-PIA) induced avoidance test (performed in mice) for antagonistic activity after p.o. administration of 0.31 mg/kg; assay type: functional; conditions: route oral
# Mus musculus [16] = assay: Tested for locomotor activity after oral administration of 5 mg/kg for 120 min; assay type: functional
# Rattus norvegicus [17] = assay: Acquisition time in Scopolamine induced avoidance test (performed in rat) for antagonistic activity after peroral administration of 0.08 mg/kg; assay type: functional; conditions: route oral
# Mus musculus [18] = assay: Tested for locomotor activity after oral administration of […] for 120 min; assay type: functional
# Rattus norvegicus [19] = assay: Retention time in Scopolamine induced avoidance test (performed in rat) for antagonistic activity after peroral administration of 5 mg/kg (n=15); assay type: functional, organism-based; parameters: dose 5 mg/kg
# Mus musculus [20] = assay: Acquisition time in (R)-PIA) induced avoidance test (performed in mice) for antagonistic activity after peroral administration of 1.25 mg/kg; assay type: functional; conditions: route oral
# Mus musculus [21] = assay: Tested for locomotor activity after oral administration of 10 mg/kg for 120 min; assay type: functional
# Mus musculus [22] = assay: Acquisition time in (R)-PIA) induced avoidance test (performed in mice) for antagonistic activity after peroral administration of 0.02 mg/kg; assay type: functional; conditions: route oral
# Rattus norvegicus [23] = assay: Retention time in Scopolamine induced avoidance test (performed in rat) for antagonistic activity after peroral administration of 1.25 mg/kg; assay type: functional, organism-based; parameters: dose 1.25 mg/kg
# Rattus norvegicus [24] = assay: Retention time in Scopolamine induced avoidance test (performed in rat) for antagonistic activity after peroral administration of 0.08 mg/kg; assay type: functional, organism-based; parameters: dose 0.08 mg/kg
# Rattus norvegicus [25] = assay: Retention time in Scopolamine induced avoidance test (performed in rat) for antagonistic activity after peroral administration of 20 mg/kg; assay type: functional, organism-based; parameters: dose 20 mg/kg
# Rattus norvegicus [26] = assay: Acquisition time in Scopolamine induced avoidance test (performed in rat) for antagonistic activity after p.o. administration of 0.08 mg/kg; assay type: functional; conditions: route oral
# Mus musculus [27] = assay: Retention time in (R)-PIA) induced avoidance test (performed in mice) for antagonistic activity after p.o. administration of 1.25 mg/kg; assay type: functional, organism-based; parameters: dose 1.25 mg/kg
# Rattus norvegicus [28] = assay: Acquisition time in Scopolamine induced avoidance test (performed in rat) for antagonistic activity after p.o. administration of 5 mg/kg; assay type: functional; conditions: route oral
# Mus musculus [29] = assay: Acquisition time in (R)-PIA) induced avoidance test (performed in mice) for antagonistic activity after p.o. administration of 1.25 mg/kg; assay type: functional; conditions: route oral
# Mus musculus [30] = assay: Retention time in (R)-PIA) induced avoidance test (performed in mice) for antagonistic activity after peroral administration of 0.02 mg/kg
# Rattus norvegicus [31] = assay: Retention time in Scopolamine induced avoidance test (performed in […]) for antagonistic activity after peroral administration of 5 mg/kg; assay type: functional, organism-based; parameters: dose 5 mg/kg
# Mus musculus [32] = assay: etention time in (R)-PIA) induced avoidance test (performed in mice) for antagonistic activity after peroral administration of 0.31 mg/kg; assay type: functional, organism-based; parameters: dose 0.31 mg/kg
# Rattus norvegicus [33] = assay: Acquisition time in Scopolamine induced avoidance test (performed in rat) for antagonistic activity after peroral administration of 20 mg/kg; assay type: functional; conditions: route oral
# Mus musculus [34] = assay: Acquisition time in (R)-PIA) induced avoidance test (performed in mice) for antagonistic activity after peroral administration of 0.02 mg/kg; conditions: route oral
# Rattus norvegicus [35] = assay: Acquisition time in Scopolamine induced avoidance test (performed in rat) for antagonistic activity after peroral administration of 0.08 mg/kg (n=18); assay type: functional; conditions: route oral
# Rattus norvegicus [36] = assay: Retention time in Scopolamine induced avoidance test (performed in […]) for antagonistic activity after peroral administration of 1.25 mg/kg (n=18) (P<0.05); assay type: functional, organism-based; parameters: dose 1.25 mg/kg
# Rattus norvegicus [37] = assay: Retention time in Scopolamine induced avoidance test (performed in rat) for antagonistic activity after peroral administration of 0.08 mg/kg (n=18) (P<0.05); assay type: functional, organism-based; parameters: dose 0.08 mg/kg
# Mus musculus [38] = assay: Retention time in (R)-PIA) induced avoidance test (performed in mice) for antagonistic activity after peroral administration of 0.31 mg/kg (n=15) (P<0.01); assay type: functional, organism-based; parameters: dose 0.31 mg/kg
# Mus musculus [39] = assay: Retention time in (R)-PIA) induced avoidance test (performed in mice) for antagonistic activity after peroral administration of 20 mg/kg (n=15) (P<0.05); assay type: functional, organism-based; parameters: dose 20 mg/kg
# Rattus norvegicus [40] = assay: Retention time in Scopolamine induced avoidance test (performed in rat) for antagonistic activity after peroral administration of 5 mg/kg (n=18) (P<0.05); assay type: functional, organism-based; parameters: dose 5 mg/kg
# Rattus norvegicus [41] = assay: Acquisition time in Scopolamine induced avoidance test (performed in rat) for antagonistic activity after peroral administration of 5 mg/kg (n=18); assay type: functional; conditions: route oral
# Rattus norvegicus [42] = assay: Acquisition time in Scopolamine induced avoidance test (performed in rat) for antagonistic activity after peroral administration of 1.25 mg/kg (n=18); assay type: functional; conditions: route oral
# Mus musculus [43] = assay: Retention time in (R)-PIA) induced avoidance test (performed in mice) for antagonistic activity after peroral administration of 0.08 mg/kg (n=15) (P<0.005); assay type: functional, organism-based; parameters: dose 0.08 mg/kg
# Rattus norvegicus [44] = assay: Acquisition time in Scopolamine induced avoidance test (performed in rat) for antagonistic activity after peroral administration of 0.31 mg/kg (n=18); assay type: functional; conditions: route oral
# Mus musculus [45] = assay: Acquisition time in (R)-PIA) induced avoidance test (performed in mice) for antagonistic activity after peroral administration of 5 mg/kg (n=15); assay type: functional; conditions: route oral
# Mus musculus [46] = assay: Acquisition time in (R)-PIA) induced avoidance test (performed in mice) for antagonistic activity after peroral administration of 0.31 mg/kg (n=15); assay type: functional; conditions: route oral
# Mus musculus [47] = assay: Acquisition time in (R)-PIA) induced avoidance test (performed in mice) for antagonistic activity after peroral administration of 0.08 mg/kg (n=15); assay type: functional; conditions: route oral
# Rattus norvegicus [48] = assay: Retention time in Scopolamine induced avoidance test (performed in rat) for antagonistic activity after peroral administration of 0.02 mg/kg (n=18) (P<0.05); assay type: functional, organism-based; parameters: dose 0.02 mg/kg
# Mus musculus [49] = assay: Acquisition time in (R)-PIA) induced avoidance test (performed in mice) for antagonistic activity after peroral administration of 1.25 mg/kg (n=15); assay type: functional; conditions: route oral
# Rattus norvegicus [50] = assay: Acquisition time in Scopolamine induced avoidance test (performed in rat) for antagonistic activity after peroral administration of 0.02 mg/kg (n=18); assay type: functional; conditions: route oral
# Mus musculus [51] = assay: Retention time in (R)-PIA) induced avoidance test (performed in mice) for antagonistic activity after peroral administration of 1.25 mg/kg (n=15) (P<0.005); assay type: functional, organism-based; parameters: dose 1.25 mg/kg
# Rattus norvegicus [52] = assay: Retention time in Scopolamine induced avoidance test (performed in rat) for antagonistic activity after peroral administration of 0.31 mg/kg (n=18) (P<0.005); assay type: functional, organism-based; parameters: dose 0.31 mg/kg
smiles,measurement,setting,value
CCCn1c(=O)c2nc(C(C3CC3)C3CC3)[nH]c2n(CCC)c1=O,Acquisition time,Rattus norvegicus [1],14.7 s
same,Retention time,Mus musculus [2],51.3 s
same,Acquisition time,Rattus norvegicus [3],15.6 s
same,Retention time,Mus musculus [4],248 s
same,Acquisition time,Mus musculus [5],28.1 s
same,Acquisition time,Rattus norvegicus [6],20.4 s
same,Retention time,Mus musculus [7],140 s
same,Retention time,Rattus norvegicus [8],54.1 s
same,Retention time,Rattus norvegicus [9],218 s
same,Retention time,Mus musculus [10],262 s
same,Retention time,Rattus norvegicus [11],48.8 s
same,Retention time,Mus musculus [12],83.9 s
same,Acquisition time,Rattus norvegicus [13],29.9 s
same,Acquisition time,Mus musculus [14],46.5 s
same,Acquisition time,Mus musculus [15],21.7 s
same,Locomotor activity,Mus musculus [16],5631 Counts
same,Acquisition time,Rattus norvegicus [17],19.3 s
same,Locomotor activity,Mus musculus [18],4365 Counts
same,Retention time,Rattus norvegicus [19],120 s
same,Acquisition time,Mus musculus [20],22.7 s
same,Locomotor activity,Mus musculus [21],5371 Counts
same,Acquisition time,Mus musculus [22],32.9 s
Cn1c(=O)c2[nH]cnc2n(C)c1=O,Retention time,Mus musculus [4],104 s
same,Retention time,Rattus norvegicus [23],10.9 s
same,Retention time,Mus musculus [7],113 s
same,Retention time,Rattus norvegicus [24],45.8 s
same,Retention time,Rattus norvegicus [9],31.2 s
same,Retention time,Mus musculus [10],166 s
same,Retention time,Mus musculus [12],85.4 s
same,Retention time,Rattus norvegicus [25],14.6 s
CCCN1C(=O)N2C[C@H](CC)N=C2c2[nH]c(C34CC5CC(CC3C5)C4)nc21,Acquisition time,Rattus norvegicus [26],8 s
same,Retention time,Mus musculus [27],351 s
same,Acquisition time,Rattus norvegicus [28],14 s
same,Acquisition time,Mus musculus [29],14.3 s
same,Acquisition time,Rattus norvegicus [3],10.9 s
same,Retention time,Mus musculus [4],431 s
same,Acquisition time,Mus musculus [5],12.9 s
same,Retention time,Rattus norvegicus [23],20.3 s
same,Retention time,Mus musculus [30],109 s
same,Acquisition time,Rattus norvegicus [6],15.1 s
same,Retention time,Rattus norvegicus [8],40.7 s
same,Retention time,Rattus norvegicus [31],13.3 s
same,Retention time,Rattus norvegicus [9],81.3 s
same,Retention time,Mus musculus [12],464 s
same,Retention time,Mus musculus [32],489 s
same,Acquisition time,Mus musculus [14],13.4 s
same,Acquisition time,Mus musculus [15],22.9 s
same,Acquisition time,Rattus norvegicus [33],7 s
same,Retention time,Rattus norvegicus [25],19.6 s
same,Acquisition time,Mus musculus [34],14.3 s
CCCn1c(=O)c2nc(C3CCC(=O)C3)[nH]c2n(CCC)c1=O (stereo not given),Acquisition time,Rattus norvegicus [35],12.8 s
same,Retention time,Rattus norvegicus [36],85.9 s
same,Retention time,Rattus norvegicus [37],126 s
same,Retention time,Mus musculus [38],234 s
same,Retention time,Mus musculus [39],319 s
same,Retention time,Rattus norvegicus [40],75.9 s
same,Acquisition time,Rattus norvegicus [41],9.8 s
same,Acquisition time,Rattus norvegicus [42],11.4 s
same,Retention time,Mus musculus [43],322 s
same,Acquisition time,Rattus norvegicus [44],13.2 s
same,Acquisition time,Mus musculus [45],15.1 s
same,Acquisition time,Mus musculus [46],22 s
same,Acquisition time,Mus musculus [47],20.8 s
same,Retention time,Rattus norvegicus [48],169 s
same,Acquisition time,Mus musculus [49],15.1 s
same,Acquisition time,Rattus norvegicus [50],16.4 s
same,Retention time,Mus musculus [51],339 s
same,Retention time,Rattus norvegicus [52],163 s
same,Locomotor activity,Mus musculus [18],6134 Counts
same,Locomotor activity,Mus musculus [21],8204 Counts

# Reference: ChEMBL document CHEMBL1126778, “Adenosine A1 antagonists. 3. Structure-activity relationships on amelioration against scopolamine- or N6-((R)-phenylisopropyl)adenosine-induced cognitive disturbance” (J Med Chem, 1993)
